The subject of data set [1] is resectable gastric and gastroesophageal junction cancer (GC/GEJC). The data set can be described thus: Phase III study, interim analysis: surgery rate and R0 resection rate. Format: in vivo, human. Here is the method:
A randomized, double-blind, placebo-controlled, multicenter, global Phase III study is conducted to assess the efficacy and safety of neoadjuvant-adjuvant durvalumab in combination with FLOT chemotherapy followed by adjuvant durvalumab monotherapy in patients with resectable GC/GEJC (i.e., radical-surgery eligible; >T2 N0-3 M0 or T0-4 N1-3 M0, per AJCC 8th edition). Patients were randomized in a 1:1 ratio to each of the following treatment arms (see FIGS. 1A and 1B): • Treatment Arm A: durvalumab 1500 mg on Day 1+FLOT on Days 1 and 15 of Q4W, both agents being adminstered for 4 cycles (2 cycles neoadjuvant+2 cycles adjuvant) followed by durvalumab 1500 mg on Day 1 Q4W for 10 additional cycles. • Treatment Arm B: placebo on Day 1+FLOT on Days 1 and 15 of Q4W, both agents being adminstered for 4 cycles (2 cycles neoadjuvant+2 cycles adjuvant) followed by placebo on Day 1 Q4W for 10 additional cycles. Surgical eligibility was assessed after neoadjuvant treatment and within 28 days prior to surgery. Surgery performed was gastrectomy or gastroesophagectomy with at least D1 lymphadenectomy (D2 lymphadenectomy recommended), as determined by the attending surgeon based on the intraoperative findings. Surgery was no earlier than 4 weeks but within 8 weeks after the last dose of neoadjuvant therapy. Patients must have recovered from all acute, reversible toxic effects from FLOT chemotherapy (excluding alopecia) and durvalumab (or placebo) that could potentially adversely impact the surgical procedure. Radical gastrectomy or gastroesophagectomy was performed for patients who met the surgery eligibility criteria by a board certified surgeon no earlier than 28 days (4 weeks) but within 56 days (8 weeks) after the last dose of neoadjuvant therapy. (Surgery >8 weeks after the last dose of neoadjuvant therapy may be permitted in consultation with the Sponsor). The recommendations of ESMO and NCCN for the resectability of GC/GEJC was followed. The surgery was be performed by a board certified gastric surgeon, who should perform gastric surgery as a prominent part of his/her practice. Surgery rate is analyzed using the same methodology as described for the pCR rate. R0 resection (margin-negative resection) rate is analyzed using the same methodology as described for the pCR rate. Surgery status is determined by a patient receiving gastrectomy or gastroesophagectomy (yes/no). Surgery rate is defined as the proportion of patients who undergo gastrectomy or gastroesophagectomy. R0 resection is determined by pathology review. R0 resection rate is defined as the proportion of patients who have a confirmed complete resection (i.e., received margin-negative surgery [R]) as assessed by pathology review. Interim analysis was conducted after all randomised patients underwent or were precluded from surgery. Superiority of pCR rate (α=0.1% [2-sided]) by central review was assessed. Surgical and safety outcomes were also assessed.

For data set [2] the test system is unchanged. Kind of data set: Phase III study, interim analysis: pathological response (pCR, pnCR, downstaging) by pathology review after neoadjuvant therapy. Format: in vivo, human. An excerpt: As used herein, the terms “combined pathological complete response/near-complete pathological response” or “pnCR” refer to the proportion of patients who only have single cells or rare small groups of cancer cells present in the resected specimens as determined by pathology review. […] The Ryan Scoring system is based on the ratio of residual cancer cells to the amount of fibrosis, and ranges from 1 (complete or near-complete response) to 3 (poor or not response to neoadjuvant therapy). As used herein, the terms “pathological complete response” or “pathological CR” or “pCR” refer to the proportion of patients who have no residual viable tumor in the resected specimens and as determined by pathology review. As used herein, the terms “event-free survival” or “EFS” refer the time from the date of randomization until the date of one of the following events, whichever occurs first: (1) first documented progression that precludes surgery or requires non-protocol therapy; (2) first evidence of documented recurrence of disease post-surgery in patients who had margin-negative surgery (R0); (3) first evidence of documented progression of disease post-surgery in patients with margin-positive surgery (R1/R2); or (4) death due to any cause. EFS is determined according to RECIST 1.1 per BICR assessment and/or locally by pathology testing.
(§1) A randomized, double-blind, placebo-controlled, multicenter, global Phase III study is conducted to assess the efficacy and safety of neoadjuvant-adjuvant durvalumab in combination with FLOT chemotherapy followed by adjuvant durvalumab monotherapy in patients with resectable GC/GEJC (i.e., radical-surgery eligible; >T2 N0-3 M0 or T0-4 N1-3 M0, per AJCC 8th edition). Patients were randomized in a 1:1 ratio to each of the following treatment arms (see FIGS. 1A and 1B): • Treatment Arm A: durvalumab 1500 mg on Day 1+FLOT on Days 1 and 15 of Q4W, both agents being adminstered for 4 cycles (2 cycles neoadjuvant+2 cycles adjuvant) followed by durvalumab 1500 mg on Day 1 Q4W for 10 additional cycles. • Treatment Arm B: placebo on Day 1+FLOT on Days 1 and 15 of Q4W, both agents being adminstered for 4 cycles (2 cycles neoadjuvant+2 cycles adjuvant) followed by placebo on Day 1 Q4W for 10 additional cycles.
Patients were stratified according to geographic region (Asia versus non-Asia), clinical lymph node status (positive versus negative), and PD-L1 expression status (TIP/TAP≥1% versus TIP/TAP<1%). Patients provided a tumor tissue sample at screening (newly acquired or archived sample <3 months old) to determine PD-L1 status using the Tumor and/or Immune Cell Positivity (TIP) scoring method (defined as proportion of tumor area occupied by tumor cells with membrane and immune cells with cytoplasmic/membrane PD-L1 staining at any intensity) by the Ventana SP263 PD-L1 immunohistochemistry (IHC) assay for stratification in which: TIP/TAP≥1% PD-L1 is considered as high, and TIP/TAP<1% PD-L1 is considered low.
Neoadjuvant therapy begins following completion of the screening period/randomization, and patients undergo resection surgery about 4 to about 8 weeks after the last dose of neoadjuvant therapy (surgery >8 weeks after the last dose of neoadjuvant therapy may be permitted). Adjuvant therapy begins about 4 weeks to about 12 weeks post-surgery (based on the patient's recovery period). In this Phase III study, the administration of durvalumab and a FLOT chemotherapy prior to surgery, followed by further administration of durvalumab and a FLOT chemotherapy after surgery, was investigated to determine if this therapy regimen can improve activity and therefore long-term clinical outcomes for patients with resectable GC and/or resectable GEJC.
Eligible patients received 1500 mg durvalumab or placebo on Day 1 in combination with FLOT chemotherapy on Days 1 and 15 for 2 cycles Q4W as neoadjuvant therapy. […]

Data set [3] is described as follows: Phase III study, interim analysis: adverse events (safety analysis set). Type of data set: in vivo. Here is the method: as §1
An adverse event (AE) can therefore be any unfavorable and unintended sign (e.g., an abnormal laboratory finding), symptom (for example nausea, chest pain), or disease temporally associated with the use of a medicinal product, whether or not considered related to the medicinal product. The term AE is used to include both serious and non-serious AEs and can include a deterioration of a pre-existing medical occurrence. An AE may occur at any time, including run-in or washout periods, even if no study intervention has been administered.
Definitions of serious adverse event: A serious adverse event is an AE occurring during any study phase (i.e., run-in, treatment, washout, follow-up), that fulfils one or more of the following criteria: results in death, is immediately life-threatening, requires in-patient hospitalization or prolongation of existing hospitalization, results in persistent or significant disability or incapacity, is a congenital abnormality or birth defect, or is an important medical event that may jeopardize the patient or may require medical treatment to prevent one of the outcomes listed above.
Adverse events are coded using the most recent version of the Medical Dictionary for Regulatory Activities (MedDRA). AEs are presented for each treatment group by SOC and/or PT, covering number and percentage of subjects reporting at least one event and number of events where appropriate. […]
Safety and tolerability are assessed in terms of AEs (including SAEs), deaths, laboratory data, vital signs, ECGs, and exposure. […]
Interim analysis was conducted after all randomised patients underwent or were precluded from surgery. Superiority of pCR rate (α=0.1% [2-sided]) by central review was assessed. Surgical and safety outcomes were also assessed.

The test system of data set [4] is tumor growth in a xenograft model. The note with it: T-cell dependent mechanism; cited from earlier work.
In a further data set the target is PD-L1 (Homo sapiens, UniProt Q9NZQ7). Particulars: in vitro; cited from earlier work.
Sequence of PD-L1 (Q9NZQ7 19-290): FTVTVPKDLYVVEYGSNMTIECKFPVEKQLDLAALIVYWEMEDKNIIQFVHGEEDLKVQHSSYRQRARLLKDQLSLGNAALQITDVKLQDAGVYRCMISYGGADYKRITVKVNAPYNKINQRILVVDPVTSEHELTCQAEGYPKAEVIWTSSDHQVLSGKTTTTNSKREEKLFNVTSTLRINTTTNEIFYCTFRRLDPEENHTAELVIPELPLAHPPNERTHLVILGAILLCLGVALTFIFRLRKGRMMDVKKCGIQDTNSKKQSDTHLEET
[5] abbreviates: Central Review (BICR), n = 474 per arm.
Where [6] appears, read: D + FLOT versus P + FLOT, p < 0.00001.
The mark [7] stands for this setting: Investigator Assessment, n = 474 per arm.
Setting [8] is: central assessment, n = 474 per arm.

With “D + FLOT: durvalumab 1500 mg Day 1 Q4W plus FLOT (5-FU + leucovorin + oxaliplatin + docetaxel) Days 1 and 15, neoadjuvant-adjuvant, then durvalumab monotherapy”, the Surgery rate in data set [1] stood at 87%. The “Surgery performed, OR (95% CI)” value in data set [1] (D + FLOT versus P + FLOT) was 1.23 (0.85-1.76). Besides, the “R0 resection, OR (95% CI)” value in data set [1] (D + FLOT versus P + FLOT, in pts with surgery) is listed as 1.00 (0.68-1.48). The R0 resection rate in data set [1] (in patients who underwent surgery) is 86%. In addition, the “R0 resection, %” value in data set [1] (in pts with surgery: D + FLOT n = 430, P + FLOT n = 422) amounted to 85.8%. Further, the “Surgery performed, %” value in data set [1] (n = 474 per arm) turned out to be 86.7%. Besides, in data set [2], the “Combined pCR/near-complete pathological response (pnCR) rate” value is recorded as 27% and the “increase in major response versus Placebo+FLOT chemotherapy alone” value is given as 12.4%. Besides, the “pCR Difference in response rate (%)” value in data set [2] (Central Review (BICR), Durva + FLOT − Placebo + FLOT) was found to be 12.0%. Further, in data set [2] (setting [5]), the “pCR N Responses” value is on record as 91 and the “pCR Response rate %” value came to 19.2%. For the same substance, the “pCR Odds ratio” value in data set [2] (Central Review (BICR), stratified Cochran-Mantel-Haenszel test, 2-sided p <0.00001) stood at 3.08. Moreover, in data set [2] (setting [6]), the “pCR, OR (95% CI)” value is 3.08 (2.03-4.67); p < 0.00001 and the “pCR/pnCR, OR (95% CI)” value was 2.19 (1.58-3.04); p < 0.00001. The “Major pathological response, Difference in response rate (%)” value in data set [2] (Durva + FLOT − Placebo + FLOT) is 12.4%. The “pCR (BICR) by subgroups” value in data set [2] (FIG. 2, odds ratio>1 favours durvalumab) is listed as “consistent across evaluable subgroups”. Further, in data set [2] (FIG. 3, odds ratio>1 favours durvalumab), the “major pathological response (complete or near-complete response BICR) by subgroups” value is on record as “consistent across evaluable subgroups”. In data set [2] (Investigator Assessment, Durva + FLOT − Placebo + FLOT), the “pCR Difference in response rate (%)” value worked out at 13.3%. Also, in data set [2] (setting [7]), the “pCR N Responses” value was determined as 103 and the “pCR Response rate %” value is given as 21.7%. In data set [2] (Investigator Assessment, stratified Cochran-Mantel-Haenszel test, 2-sided p <0.00001), the “pCR Odds ratio” value is 3.03. Further, in data set [2] (by central review), the “Downstaging, pN0” value is on record as 47% and the “Downstaging, pT0” value amounted to 21%. Also, in data set [2] (setting [8]), the “Major pathological response (complete or near-complete) N Responses” value came out at 127 and the “Major pathological response rate %” value was 26.8%. Besides, the pCR rate in data set [2] (central review, interim analysis) came out at 19%. The “pCR/pnCR, %” value in data set [2] (n = 474 per arm) is on record as 26.8%. In addition, the “pCR, %” value in data set [2] (n = 474 per arm, interim analysis) amounted to 19.2%. Also, the “Major pathological response, Odds ratio” value in data set [2] (stratified Cochran-Mantel-Haenszel test, 2-sided p <0.00001) was 2.19. Moreover, the “increase in pCR rate from addition of durvalumab to FLOT” value in data set [2] (versus Placebo) is 12%. Further, the “pCR odds ratio [OR]” value in data set [2] (versus Placebo, p<0.00001) came out at 3.08. Moreover, in data set [3] (safety analysis set), the “AE Grade 3/4, (%)” value is given as “(68.6) %”; the “Grade 3/4 TRAE, (%)” value is recorded as “(57.9) %”; the “TRAE (treatment-related AE), (%)” value is given as “(95.2) %”. Besides, the “AE, (%)” value in data set [3] (safety analysis set: D + FLOT n = 475, P + FLOT n = 469) is reported as “(98.9) %”.

On to “Durvalumab: antibody that selectively binds PD-L1 and blocks the binding of PD-L1 to the PD-1 and CD80 receptors”, for which the tumor growth result in data set [4] is on record as “inhibits tumor growth”. Besides, the “effect on PD-L1-mediated suppression of human T-cell activation” value with PD-L1 was “relieve PD-L1-mediated suppression of human T-cell activation in vitro”.

Source of the values: patent US20250099580A1, “TREATMENT OF GASTRIC CANCER AND/OR GASTROESOPHAGEAL JUNCTION CANCER” (AstraZeneca AB, priority 2023, published 2025).
